Data: US11083724B2, “Rimegepant for CGRP related disorders” (Biohaven Pharmaceutical Holding Company Ltd., priority 2018, dated 2021)

System: subjects with Acute Migraines
Experiment: Study 303 (BHV3000-303, NCT03461757): Phase 3 double-blind placebo-controlled trial, rimegepant 75 mg ODT, acute treatment of migraine
Format: in vivo, human
Protocol: Clinical Trial—BHV3000-303: Phase 3: Double-Blind, Randomized, Placebo-Controlled, Safety and Efficacy Trial of BHV-3000 (Rimegepant) Orally Discintegrating Tablet (ODT) for the Acute Treatment of Migraine (ClinicalTrials.gov Identifier: NCT03461757) A phase 3 clinical study was conducted with 1812 participants, as follows. The purpose of this study is to compare the efficacy of BHV-3000 (rimegepant ODT) versus placebo in subjects with Acute Migraines. Study Design • Study Type: Interventional (Clinical Trial) • Actual Enrollment: 1812 participants • Allocation: Randomized • Intervention Model: Parallel Assignment • Masking: Triple (Participant, Care Provider, Investigator) • Primary Purpose: Treatment • Official Title: BHV3000-303: Phase 3, Double-Blind, Randomized, Placebo Controlled, Safety and Efficacy Trial of BHV-3000 (Rimegepant) Orally Disintegrating Tablet (ODT) for the Acute Treatment of Migraine • Actual Study Start Date: Feb. 27, 2018 • Actual Primary Completion Date: Oct. 8, 2018 • Actual Study Completion Date: Oct. 15, 2018 Arms and Interventions Outcome Measures Primary Outcome Measures: 1. Pain freedom of rimegepant compared with placebo in the acute treatment of migraine will be measured using the number of evaluable subjects that report no pain at 2 hours post-dose. [Time Frame: Two hours post dose] Pain will be measured on a 4 point Likert scale (0=none, 1=mild, 2=moderate, 3=severe) 2. Freedom from the most bothersome symptom (MBS) of rimegepant compared with placebo will be measured using the number of evaluable subjects that report the absence of their MBS at 2 hours post-dose. [Time Frame: Two hours post dose] The MBS (nausea, phonophobia or photophobia) will measured using a binary scale (0=absent, 1=present). Secondary Outcome Measures: 1. To measure rimegepant compared to placebo on Pain Relief, at 2 hours post-dose, that report a pain level of moderate or severe at baseline and then report a pain level of none or mild. [Time Frame: 2 hours post-dose] Pain Relief as measured by a 4 point numeric rating scale (None, Mild, Moderate, Severe) 2. Functional disability scale [Time Frame: 2 hour post-dose] Subjects self-report “normal” on the functional disability scale 3. […] [Time Frame: 2 hours-24 hours post-dose] Sustained Pain Relief as measured by a 4 point numeric rating scale (None, Mild, Moderate, Severe) 4. […] [Time Frame: 2 to 24 hours post dose] Most bothersome symptom 5. To measure rimegepant compared to placebo on the probability of requiring rescue medication will be assessed using the number of subjects that take rescue medication within […] administration of study medication (BHV3000 or placebo). [Time Frame: up to 24 hours post-dose] Requiring Rescue Medication 6. Sustained ability to function at a normal level as measured by the Functional disability scale [Time Frame: 2 to 24 hours post dose] Subjects self-report “normal” on the functional disability scale 7. […] [Time Frame: 2 hours-48 hours post-dose] Sustained Pain Relief as measured by a 4 point numeric rating scale (None, Mild, Moderate, Severe) 8. Rimegepant compared to placebo on pain freedom from most bothersome symptom from 2-48 hours post dose. [Time Frame: 2 to 48 hours post dose] Most bothersome symptom 9. Sustained ability to function at a normal level as measured by the Functional disability scale [Time Frame: 2 to 48 hours post dose] Subjects self-report “normal” on the functional disability scale 10. Rimegepant compared to placebo by tabulating the number of subjects that report the absence of photophobia at 2 hours post-dose in the subset of subjects that reported the presence of photophobia at headache baseline [Time Frame: 2 hours post-dose] Freedom from Photophobia 11. Functional disability scale [Time Frame: 90 minutes post dose] Subjects self-report “normal” on the functional disability scale 12. […] [Time Frame: 90 minutes post dose] Pain Relief as measured by a 4 point numeric rating scale (None, Mild, Moderate, Severe) 13. […]

[1] = Study 303, n = 669, exploratory
[2] = Study 303, single 75 mg ODT, N = 669

SMILES: N[C@@H]1c2cccnc2[C@H](OC(=O)N2CCC(n3c(=O)[nH]c4ncccc43)CC2)CC[C@H]1c1cccc(F)c1F [Rimegepant, [(5S,6S,9R)-5-amino-6-(2,3-difluorophenyl)-6,7,8,9-tetrahydro-5H-cyclohepta[b]pyridin-9-yl] 4-(2-oxo-3H-imidazo[4,5-b]pyridin-1-yl)piperidine-1-carboxylate]
- Freedom from MBS at 2 hours, Difference (rimegepant minus placebo) (Study 303): 8.3%
- Pain Freedom at 2 hours, Difference (rimegepant minus placebo) (Study 303): 10.3%
- incidence of any single adverse event (AE) in the rimegepant group (Study 303): ≤ 1.6%
- patients with LFTs >3×ULN (Study 303): one
- Sustained Pain Relief 3 to 48 hrs (Study 303, n = 669): 49.9%
- Sustained Pain Relief 3 to 24 hrs [1]: 56.4%
- Sustained Pain Relief 4 to 24 hrs [1]: 61.7%
- Sustained Pain Relief 4 to 48 hrs [1]: 54.7%
- Pain Relief @ 2 hours (Study 303, secondary 1): 59.3%
- Functional Disability at 2 hours (Study 303, secondary 2, self-report normal): 38.1%
- SP Relief (Sustained Pain Relief) 2 to 24 hours (Study 303, secondary 3): 47.8%
- MBS 2 to 24 (Study 303, secondary 4, sustained freedom from MBS): 27.1%
- Prob of Rescue Meds in 24 hours (Study 303, secondary 5): 14.2%
- Functional Disability 2 to 24 (Study 303, secondary 6): 29.6%
- SP Relief (Sustained Pain Relief) 2 to 48 hours (Study 303, secondary 7): 42.2%
- MBS 2 to 48 (Study 303, secondary 8): 23.2%
- Functional Disability 2 to 48 (Study 303, secondary 9): 26.0%
- Photophobia @ 2 hours (Study 303, secondary 10, freedom from photophobia): 33.4%
- Functional Disabilty @ 90 minutes (Study 303, secondary 11): 30.2%
- Pain Relief @ 90 minutes (Study 303, secondary 12): 49.6%
- SP Freedom 2 to 24 hours (Study 303, secondary 13): 15.7%
- MBS Freedom at 90 minutes (Study 303, secondary 14): 27.4%
- Pain Freedom @ 90 minutes (Study 303, secondary 15): 15.1%
- Phonophobia @ 2hours (Study 303, secondary 16, freedom from phonophobia): 41.7%
- SP Freedom 2 to 48 hours (Study 303, secondary 17): 13.5%
- Pain Relief at 60 minutes (Study 303, secondary 18): 36.8%
- Functional Disability at 60 minutes (Study 303, secondary 19): 22.3%
- Nausea @ 2 hours (Study 303, secondary 20, freedom from nausea): 51.0%
- Pain Relpase 2 to 48 (Study 303, secondary 21): 36.6%
- Freedom from MBS at 2 hours [2]: 35.1%
- Pain Freedom at 2 hours [2]: 21.2%
- clinical benefit through 48 hours on pain relief, pain freedom, most bothersome symptom, functional disability (Study 303, single dose, versus placebo): Lasting clinical benefit
